Like-named read-outs stand apart in the source and are kept apart here. Starred links: 1 amine or outer side, 2 acyl side, 3 side chain; linkers in the order of their positions; H or OH if unused. Positions of bridges follow the written chain, without caps; N, C: chain ends. Non-standard residues stand in square brackets, D forms with d. Residues, ends and D or L forms follow the SMILES beside them. Groups on a side chain read outwards from the residue. Chains are numbered I, II in the order given. *: point of attachment. C18 diacid = O=C(O)CCCCCCCCCCCCCCCCC(=O)*; C17 diacid = O=C(O)CCCCCCCCCCCCCCCC(=O)*; γGlu = O=C(O)[C@H](CCC(=O)[*:2])N[*:1]; NMeY = CN[C@@H](Cc1ccc(O)cc1)C(=O)O; AEEA = NCCOCCOCC(=O)O; Aib = CC(C)(N)C(=O)O
Tests used:
physchem = assay: physchem
In short: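 3 mg of peptide treated with 100 μL portions of 200 mM phosphate buffer pH 7.4, sonicating/vortexing up to 1 min, with further buffer added until fully dissolved. Solubility then quantified by HPLC.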

[1] = Dog plasma protein binding (PPB); type: in vitro ADME; conditions: pH 7.4; fraction unbound; dog serum; read-out: Dog PPB (FUplasma)
Description: Dog PPB values presented below are obtained essentially as described for Human PPB samples, with the difference being that dog serum is used instead of human serum. Table 10 is provided with the values of (Fu,plasma) as fraction unbound expressed as a percentage compared to the percent bound. i.e. if the value is 0.0123, then the fraction unbound is […], which is 1.23% of the peptide is unbound and 98.77% is bound in plasma. Methods and analysis for performing the dog PPB protocol and results are the same as noted herein as for the Human PPB protocol and analysis.

[2] = Human plasma protein binding (PPB); type: in vitro ADME; conditions: for free unbound peptide in human plasma (in words): judged for once per week (QW) dosing
Method: Stock solutions: (1000 μM) of the peptides are prepared in DMSO.
Human plasma (mixed gender; containing K2-EDTA as anti-coagulant; pre-adjusted to pH 7.4—NB alternative species may be used) is spiked individually with each test peptide (1000 nmol/L), sampled for analysis and then incubated (n=4) at 37° C. in a water bath for 30 minutes. Following the incubation period, the plasma is sampled for analysis, then transferred to ultracentrifugation tubes and centrifuged (n=3) at […] and 4° C. for 3 hours, after which the supernatant is sampled for analysis. An additional aliquot of the supernatant is taken at the end of the centrifugation period to determine the total protein concentration. An aliquot of the incubated plasma will be stored at 4° C. for 3 hours and then sampled for analysis. At the point of sampling, all samples are matrix-matched, treated with ice-cold acetonitrile/methanol (4:1 (vfv)) containing internal standard, centrifuged al 2000 g and 4° C. for 10 minutes and stored prior to LC-MS/MS analysis. An appropriate positive control compound control will be incubated and centrifuged in parallel; control plasma is also centrifuged to generate samples for matrix-matching. Fraction unbound in plasma (Fuplasma) values is determined by comparison of the analyte response in plasma to the analyte response in the supernatant, determined via peak area response ratios.
The samples are analyzed by LC-MS/MS using a 6500 (or equivalent) triple quadrupole mass spectrometer (AB Sciex) coupled to an appropriate Liquid Chromatography (LC) system. Protein binding and stability values are determined via peak area ratios using multiple reaction monitoring (MRM) parameters following compound optimisation. Multiple reaction monitoring (MRM) is a highly sensitive method of targeted mass spectrometry (MS) that can be used to selectively detect and quantify peptides based on the screening of specified precursor peptide-to-fragment ion transitions.

human GLP-1R = target: T1, human GLP-1R (Homo sapiens, UniProt P43220); assay: Human GLP1R agonist activity, intracellular cAMP accumulation; type: cell-based; conditions: HEK-293T cells overexpressing human GLP-1R, 1 hr
T1 construct: HEK-293T cells overexpressing full-length human GLP-1R; FLAG (N); host or cells: HEK-293T
T1 sequence (P43220 24-463): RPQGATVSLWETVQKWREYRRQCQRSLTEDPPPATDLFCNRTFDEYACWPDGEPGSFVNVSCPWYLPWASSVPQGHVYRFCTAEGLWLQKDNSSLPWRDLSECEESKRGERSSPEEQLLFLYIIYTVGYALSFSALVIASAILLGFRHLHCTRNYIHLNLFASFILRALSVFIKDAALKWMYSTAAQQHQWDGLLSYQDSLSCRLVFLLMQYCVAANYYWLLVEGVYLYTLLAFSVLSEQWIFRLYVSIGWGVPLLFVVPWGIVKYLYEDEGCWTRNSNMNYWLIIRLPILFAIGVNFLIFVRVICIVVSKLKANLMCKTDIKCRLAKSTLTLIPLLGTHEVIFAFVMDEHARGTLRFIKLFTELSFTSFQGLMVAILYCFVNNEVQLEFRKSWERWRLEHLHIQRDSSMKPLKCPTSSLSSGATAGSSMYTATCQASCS
In short: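 Frozen assay-ready cells washed and resuspended at 4×10^5 cells/mL in Krebs Ringer buffer, then incubated with compound 1 hr at room temperature in the dark. cAMP read by HTRF (anti-cAMP antibody, d2-cAMP tracer). Normalised to 1 nm GLP-1 (100%) and DMSO (0%).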

C57BL/6J mice = assay: Oral glucose tolerance test (OGTT); type: in vivo; conditions: 3 nmol/kg s.c., 24 hours before glucose loading
In short: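 Peptide or vehicle given s.c. at 0.1, 0.3, 3 or 10 nmol/kg (peptide-dependent), 24 h before oral 50% dextrose at 5 ml/kg unless stated otherwise. Blood glucose read at 0, 15, 30 and 60 min. % inhibition = (1−(AUC cpd−AUC naïve)/(AUC veh−AUC naïve))×100.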

[3] = both sexes, pH 7.4, fraction unbound, human plasma, 1000 nmol/L peptide, ultracentrifugation, read-out: Human PPB (FUplasma)
[4] = pH 7.4, aqueous buffer, pH 7.4 Phosphate Buffer - Solubility, 200 mM Phosphate buffer pH 7.4
[5] = pH 7.4, solubility in phosphate buffer at pH 7.4, 200 mM phosphate buffer pH 7.4
[6] = read-out: Human GLP1R cAMP EC50, HEK293T

Compound	solubility (physchem; pH 7.4, aqueous buffer) [mg/mL]	free unbound peptide in human plasma (in words) [2]	solubility (physchem; [4]) [mg/mL]	solubility (physchem; [5]) [mg/mL]	fraction unbound at 30 min, 1000 nmol/L [1]	fraction unbound at 30 min, 1000 nmol/L [2, 3]	solubility (physchem; pH 7.4) [mg/mL]	EC50 (human GLP-1R; [6]) [nM]	Oral Glucose Tolerance Test Percent decrease in blood glucose AUC (%) over 60 mins (C57BL/6J mice)	further results
CC[C@H](C)[C@H](NC(=O)[C@H](CO)NC(=O)[C@H](Cc1ccc(O)cc1)NC(=O)[C@H](CC(=O)O)NC(=O)[C@H](CO)NC(=O)[C@@H](NC(=O)[C@H](Cc1ccccc1)NC(=O)[C@@H](NC(=O)CNC(=O)[C@H](CCC(=O)O)NC(=O)C(C)(C)NC(=O)[C@H](Cc1ccc(O)cc1)NC)[C@@H](C)O)[C@@H](C)CC)C(=O)N[C@@H](C)C(=O)N[C@@H](CC(C)C)C(=O)N[C@@H](CC(=O)O)C(=O)N[C@@H](CCCNC(=N)N)C(=O)NC(C)(C)C(=O)N[C@@H](C)C(=O)N[C@@H](CCC(N)=O)C(=O)NC(C)(C)C(=O)N[C@@H](CCCCNC(=O)COCCOCCNC(=O)COCCOCCNC(=O)CC[C@H](NC(=O)CC[C@H](NC(=O)CCCCCCCCCCCCCCCC(=O)O)C(=O)O)C(=O)O)C(=O)N[C@@H](Cc1ccccc1)C(=O)N[C@H](C(=O)N[C@@H](CC(N)=O)C(=O)N[C@@H](Cc1c[nH]c2ccccc12)C(=O)N[C@@H](CC(C)C)C(=O)N[C@@H](CC(C)C)C(=O)N[C@@H](C)C(=O)N[C@@H](CCC(N)=O)C(=O)N[C@@H](CCCNC(=N)N)C(N)=O)C(C)C [Compound 8] (H-[NMeY][Aib]EGTFISDYSIALDR[Aib]AQ[Aib]K([AEEA-AEEA-γGlu-γGlu-C17 diacid])FVNWLLAQR-NH2)	≥ 15	optimum free unbound peptide	–	–	–	–	–	–	–	fraction unbound [1]: 0.0016; fraction unbound [2, 3]: 0.0009
CC[C@H](C)[C@H](NC(=O)[C@H](CO)NC(=O)[C@H](Cc1ccc(O)cc1)NC(=O)[C@H](CC(=O)O)NC(=O)[C@H](CO)NC(=O)[C@@H](NC(=O)[C@H](Cc1ccccc1)NC(=O)[C@@H](NC(=O)CNC(=O)[C@H](CCC(=O)O)NC(=O)C(C)(C)NC(=O)[C@H](Cc1ccc(O)cc1)NC)[C@@H](C)O)[C@@H](C)CC)C(=O)N[C@@H](C)C(=O)N[C@@H](CC(C)C)C(=O)N[C@@H](CC(=O)O)C(=O)N[C@@H](CCCNC(=N)N)C(=O)NC(C)(C)C(=O)N[C@@H](CCCCNC(=O)COCCOCCNC(=O)COCCOCCNC(=O)CC[C@H](NC(=O)CC[C@H](NC(=O)CCCCCCCCCCCCCCCC(=O)O)C(=O)O)C(=O)O)C(=O)N[C@@H](CCC(N)=O)C(=O)NC(C)(C)C(=O)N[C@@H](CC(N)=O)C(=O)N[C@@H](Cc1ccccc1)C(=O)N[C@H](C(=O)N[C@@H](CC(N)=O)C(=O)N[C@@H](Cc1c[nH]c2ccccc12)C(=O)N[C@@H](CC(C)C)C(=O)N[C@@H](CC(C)C)C(=O)N[C@@H](C)C(=O)N[C@@H](CCC(N)=O)C(=O)N[C@@H](CO)C(=O)N1CCC[C@H]1C(=O)N[C@@H](CO)C(=O)N[C@@H](CO)C(=O)NCC(=O)N[C@@H](C)C(=O)N1CCC[C@H]1C(=O)N1CCC[C@H]1C(=O)N1CCC[C@H]1C(=O)N[C@@H](CO)C(N)=O)C(C)C [Compound 11] (H-[NMeY][Aib]EGTFISDYSIALDR[Aib]K([AEEA-AEEA-γGlu-γGlu-C17 diacid])Q[Aib]NFVNWLLAQSPSSGAPPPS-NH2)	–	optimum free unbound peptide	≥ 30	≥ 15	≤ 0.0024	0.0038	–	–	–	–
CC[C@H](C)[C@H](NC(=O)[C@H](Cc1ccccc1)NC(=O)[C@@H](NC(=O)CNC(=O)[C@H](CCC(=O)O)NC(=O)C(C)(C)NC(=O)[C@H](Cc1ccc(O)cc1)NC)[C@@H](C)O)C(=O)N[C@@H](CO)C(=O)N[C@@H](CC(=O)O)C(=O)N[C@@H](Cc1ccc(O)cc1)C(=O)N[C@@H](CO)C(=O)N[C@H](C(=O)NC(C)(C)C(=O)N[C@@H](CC(C)C)C(=O)N[C@@H](CC(=O)O)C(=O)N[C@@H](CCCNC(=N)N)C(=O)NC(C)(C)C(=O)N[C@@H](C)C(=O)N[C@@H](CCC(N)=O)C(=O)NC(C)(C)C(=O)N[C@@H](CCCCNC(=O)COCCOCCNC(=O)COCCOCCNC(=O)CC[C@H](NC(=O)CC[C@H](NC(=O)CCCCCCCCCCCCCCCC(=O)O)C(=O)O)C(=O)O)C(=O)N[C@@H](Cc1ccccc1)C(=O)N[C@H](C(=O)N[C@@H](CC(N)=O)C(=O)N[C@@H](Cc1c[nH]c2ccccc12)C(=O)N[C@@H](CC(C)C)C(=O)N[C@@H](CC(C)C)C(=O)N[C@@H](C)C(=O)N[C@@H](CCC(N)=O)C(=O)N[C@@H](CCCNC(=N)N)C(=O)N1CCC[C@H]1C(=O)N[C@@H](CO)C(=O)N[C@@H](CO)C(=O)NCC(=O)N[C@@H](C)C(=O)N1CCC[C@H]1C(=O)N1CCC[C@H]1C(=O)N1CCC[C@H]1C(=O)N[C@@H](CO)C(N)=O)C(C)C)[C@@H](C)CC [Compound 13] (H-[NMeY][Aib]EGTFISDYSI[Aib]LDR[Aib]AQ[Aib]K([AEEA-AEEA-γGlu-γGlu-C17 diacid])FVNWLLAQRPSSGAPPPS-NH2)	–	–	≥ 30	≥ 15	< 0.002	< 0.002	–	–	–	–
CC[C@H](C)[C@H](NC(=O)[C@H](Cc1ccccc1)NC(=O)[C@@H](NC(=O)CNC(=O)[C@H](CCC(=O)O)NC(=O)C(C)(C)NC(=O)[C@@H](N)Cc1ccc(O)cc1)[C@@H](C)O)C(=O)N[C@@H](CO)C(=O)N[C@@H](CC(=O)O)C(=O)N[C@@H](Cc1ccc(O)cc1)C(=O)N[C@@H](CO)C(=O)N[C@H](C(=O)NC(C)(C)C(=O)N[C@@H](CCCCNC(=O)CNC(=O)CNC(=O)CNC(=O)CNC(=O)CNC(=O)CCCCCCCCCCCCCCCCC(=O)O)C(=O)N[C@@H](CC(=O)O)C(=O)N[C@@H](CCCNC(=N)N)C(=O)N[C@@H](C)C(=O)N[C@@H](C)C(=O)N[C@@H](CCC(N)=O)C(=O)NC(C)(C)C(=O)N[C@@H](CC(=O)O)C(=O)N[C@@H](Cc1ccccc1)C(=O)N[C@H](C(=O)N[C@@H](CCC(=O)O)C(=O)N[C@@H](Cc1c[nH]c2ccccc12)C(=O)N[C@@H](CC(C)C)C(=O)N[C@@H](CC(C)C)C(=O)N[C@@H](C)C(=O)N[C@@H](CCC(N)=O)C(=O)N[C@@H](CCCNC(=N)N)C(=O)NCC(=O)O)C(C)C)[C@@H](C)CC [Compound 145]	≥ 30	–	–	–	–	–	≥ 15	9.33	52% (3 nmol/kg)	–
CC[C@H](C)[C@H](NC(=O)[C@H](CO)NC(=O)[C@H](Cc1ccc(O)cc1)NC(=O)[C@H](CC(=O)O)NC(=O)[C@H](CO)NC(=O)[C@@H](NC(=O)[C@H](Cc1ccccc1)NC(=O)[C@@H](NC(=O)CNC(=O)[C@H](CCC(=O)O)NC(=O)C(C)(C)NC(=O)[C@@H](N)Cc1ccc(O)cc1)[C@@H](C)O)[C@@H](C)CC)C(=O)N[C@@H](C)C(=O)N[C@@H](CCCCNC(=O)CNC(=O)CNC(=O)CNC(=O)CNC(=O)CNC(=O)CCCCCCCCCCCCCCCCC(=O)O)C(=O)N[C@@H](CC(=O)O)C(=O)N[C@@H](CCCNC(=N)N)C(=O)NC(C)(C)C(=O)N[C@@H](C)C(=O)N[C@@H](CCC(N)=O)C(=O)N[C@@H](C)C(=O)N[C@@H](CC(=O)O)C(=O)N[C@@H](Cc1ccccc1)C(=O)N[C@H](C(=O)N[C@@H](CCC(=O)O)C(=O)N[C@@H](Cc1c[nH]c2ccccc12)C(=O)N[C@@H](CC(C)C)C(=O)N[C@@H](CC(C)C)C(=O)N[C@@H](C)C(=O)N[C@@H](CCC(N)=O)C(=O)N[C@@H](CCCNC(=N)N)C(=O)NCC(=O)O)C(C)C [Compound 149]	≥ 30	–	–	–	–	–	≥ 15	15.8	13% (3 nmol/kg)	–
I: H-[NMeY][Aib]EGTFISDYSIAKDR[Aib]AQ[Aib]DFVNWLLAQSPSSGAPPPS-OH / II: {C18 diacid}-PAPAPGG (amide I:14-II:C) [Compound 105]	–	–	≥ 60	≥ 15	–	–	–	–	82% (3 nmol/kg)	EC50 (human GLP-1R; Human GLP1R cAMP EC50, HEK293T (nM)): 562 nM

From patent US20230143604A1, “QW DOSING OF GIP RECEPTOR AGONIST PEPTIDE COMPOUNDS AND USES THEREOF” (TAKEDA PHARMACEUTICAL COMPANY LIMITED, priority 2020, published 2023)
